Laboratory results as given in paper PMC11591356, “Immunomodulatory Effects of the Tobacco Defensin NaD1” (Antibiotics, 2024).
Ends that are not written are not given here.

Tests used:
[1] = test system: THP-1-derived macrophages; assay: ELISA assay of cytokine production by THP-1-derived macrophages; format: cell-based, human
Description: THP-1 (ATCC TIB-202) cells were thawed and cultured in complete RPMI-1640, containing 10% FBS (Capricorn Scientific) and 1×AA solution in CO2-intubator. Monocytic THP-1 cells were differentiated into resting M0 macrophages by stimulation for 24 h with 100 ng/mL phorbol 12-myristate 13-acetate (PMA) in complete RPMI-1640. Then, the attached macrophage-like cells were washed out with culture medium without serum and incubated for another 48 h in PMA-free complete culture medium with 10% HS and 1×AA solution.
THP-1-derived macrophages were seeded into the wells of a 24-well plate at a density of 2.7 × 10^5 cells/well in complete RPMI-1640 with 10% HS and 1×AA solution. Then, 24 h later, the culture medium was replaced by the fresh complete RPMI-1640 containing lipopolysaccharide from Escherichia coli 0111:B4 (LPS, Sigma, St. Louis, MO, USA) or zymosan from the cell wall of Saccharomyces cerevisiae (Serva, Heidelberg, Germany) at concentrations of 1 or 10 μg/mL, respectively; antimicrobial peptides NaD1, Psd1, LL-37 or HBD2 at concentrations of 2 or 0.2 µM; and combinations of antimicrobial peptides with LPS or zymosan at the same concentrations. Insoluble zymosan was resuspended in sterile water and sonicated twice for 30 s; after that, the stock solution was heated to 80 °C for 20 min. Peptides were added 2 h before stimulation with LPS and zymosan. After that, PAMPs solutions were added and the cells were cultured for 24 h. Complete RPMI-1640 only was used in the control wells. Culture supernatants were collected and stored at −70 °C prior to the cytokines’ assessment.
The production of pro- and anti-inflammatory cytokines IL-1β, IL-6, TNF-α and IL-10 by stimulated and non-stimulated THP-1-derived macrophages were estimated by using ELISA kits (Vector-Best, Koltsovo, Russia). Briefly, 96-well plates with adsorbed monoclonal antibodies to the corresponding cytokine were used. Undiluted or diluted 5, 20 or 80 times in the case of IL-10, TNF-α and IL-1β or IL-6, respectively, culture supernatants from the wells of 24-well plates were taken for analysis. Biotinylated polyclonal antibodies to cytokines, streptavidin conjugated to HRP and TMB substrate were further used for the detection of immune complexes. A panel of calibration solutions containing different concentrations of cytokines was used in each experiment. Experiments were performed using two biological and two technical repeats. The release of the cytokines in the control and experimental samples was compared with an unpaired two-sample t-test using GraphPad Prism v.8.0.1 (GraphPad Software, Inc., San Diego, CA, USA). The p values ≤ 0.05 were considered significant.

[2] = test system: Candida albicans ATCC 18804; assay: Antifungal microdilution assay with or without LPS or zymosan; format: cell-based
Description: The antifungal assay was performed by the microdilution method using 96-well microplates as described. Briefly, C. albicans ATTC 18804 cells in stock were inoculated onto Sabouraud agar plates with 2% glucose and incubated for 24 h at 37 °C. After replating, cells were inoculated in Sabouraud broth and cultured at 37 °C for 2 h. The cell concentration was determined using a LUNA-II cell counter (Logos Biosystems, Anyang-si, Republic of Korea). Yeast cells in Sabouraud broth diluted to concentration of 4 × 10^4 cells/mL were mixed with equal volumes of serial two-fold dilutions of the peptides in water and the plates were incubated at 30 °C for 24 h. The final peptide concentrations in the wells were 25, 12.5, 6.25, 3.13, 1.56, 0.78 and 0.39 μM. Controls without peptides were also tested. […] Yeast growth was assessed using an inverted light microscope and also by measuring absorbance at 630 nm. The minimum inhibitory concentrations IC50 and MIC were defined as the lowest peptide concentrations inhibiting fungal growth by at least 50 and 100%, respectively. […] The MFCs corresponded to the minimal peptide concentration, in which no colony growth was observed.
To estimate the effects of LPS and zymosan on the antifungal activity of NaD1 and LL-37, these PAMPs were added in culture media at concentrations of 10, 40 and 100 μg/mL [39, 40]. All of the experiments were performed twice in triplicate.

[3] = peptide 2 µM 2 h before LPS 1 μg/mL, 24 h, vs LPS alone
[4] = peptide 2 µM 2 h before zymosan 10 μg/mL, 24 h, vs zymosan alone

With “NaD1: Recombinant tobacco floral defensin NaD1 (UNIPROT Q8GTM0), obtained by heterologous expression in E. coli; FITC-labeled in the permeability assay (RECKTESNTFPGICITKPPCRKACISEKFTDGHCSKILRRCLCTKPC; cysteine pairing not given here; also: FITC label; UniProt Q8GTM0 26-72, looked up)” the “IL-10 production by M0 and M1 macrophages” value ([1]; elevation from 150 (without NaD1)) was 180 pg/mL, the “IL-1β production by M0 and M1 macrophages” value ([1]; increase from 4500 (without NaD1)) was 6500 pg/mL and the “LPS-induced IL-1β production” value [1, 3] was “increased the LPS-induced production of IL-1β”. For the same substance, the “LPS-induced IL-10 production” value [1, 3] was “increased the LPS-induced production of IL-10”, the “LPS-induced TNF-α secretion” value [1, 3] was “reduced the LPS-induced secretion of TNF-α” and the “IL-1β production in the presence of zymosan” value [1, 4] was “induced the production of IL-1β (p <0.0001) more strongly than without this PAMP”. For the same substance, the “IL-10 production in the presence of zymosan” value [1, 4] was “increased the production of IL-10 in the presence of zymosan”, the “IL-10 production, unstimulated macrophages” value ([1]; peptide 2 µM alone, vs unstimulated control) was “induced the production of IL-10” and the “IL-1β production, unstimulated macrophages” value ([1]; peptide 2 µM alone, vs unstimulated control, two biological and two technical repeats) was “significantly increased IL-1β level”. For the same substance, the IC50 ([2]; 10 μg/mL LPS) was 3.12 to 6.25 µM, the MFC ([2]; 10 μg/mL LPS) was 12.5 µM and the MIC ([2]; 10 μg/mL LPS) was 6.25 µM. It also gave an IC50 ([2]; 10 μg/mL Zymosan) of 3.12 to 6.25 µM, an MFC ([2]; 10 μg/mL Zymosan) of 12.5 µM and an MIC ([2]; 10 μg/mL Zymosan) of 6.25 µM. The IC50 ([2]; 40 μg/mL LPS) was 3.12 to 6.25 µM, the MFC ([2]; 40 μg/mL LPS) was 12.5 µM and the MIC ([2]; 40 μg/mL LPS) was 6.25 µM. For the same substance, the IC50 ([2]; 40 μg/mL Zymosan) was 3.12 to 6.25 µM, the MFC ([2]; 40 μg/mL Zymosan) was 25 µM and the MIC ([2]; 40 μg/mL Zymosan) was 6.25 µM. The IC50 ([2]; 100 μg/mL LPS) was 3.12 to 6.25 µM, the MFC ([2]; 100 μg/mL LPS) was 12.5 µM and the MIC ([2]; 100 μg/mL LPS) was 12.5 µM. The IC50 ([2]; 100 μg/mL Zymosan) was 3.12 to 6.25 µM, the MFC ([2]; 100 μg/mL Zymosan) was 25 µM and the MIC ([2]; 100 μg/mL Zymosan) was 6.25 µM. The MIC ([2]; without PAMP, Sabouraud broth, 30 °C, 24 h, 100% growth inhibition) was 6.25 µM, the IC50 ([2]; without PAMP, Sabouraud broth, 30 °C, 24 h, lowest concentration inhibiting growth by at least 50%, twice in triplicate) was 3.12 to 6.25 µM and the MFC ([2]; without PAMP, plating on Sabouraud agar, 37 °C, 24 h, no colony growth) was 12.5 µM.
